Reference: patent US20140100290A1, “Method of treating a prostate condition” (priority 2012, published 2014)
Like-named read-outs stand apart in the source and are kept apart here.

How the values were obtained:
[1] = system: PC-3 cells; test: XTT cell proliferation (cell viability) assay in PC-3 cells; format: cell-based; details: Homo sapiens, mean±S.E.M., read-out: IC50 (anti-proliferative activity, XTT)
Description: (§1) Cell Line and Culture Conditions • Human metastatic, androgen insensitive prostate cancer cells, PC-3, were obtained from ATCC (Manassas, Va., USA). Cells were grown in F-12K medium supplemented with 2 mM glutamine, 10% FBS, 100 U/mL penicillin, and 100 μg/mL streptomycin. PC-3 cells were maintained in a humidified atmosphere of 5% CO2 at 37° C. in T-75 flasks and were subcultured when confluent.
The anti-proliferative effect of carvacrol was assessed in PC-3 cells using the XTT cell proliferation assay. This assay is a colorimetric assay that is used to measure cell growth and drug sensitivity in tumor cell lines by measuring the internal environment of the proliferating cell, which is more reduced than that of non-proliferating cells. In this assay, the second generation tetrazolium dye, XTT (2,3-bis(2-methoxy-4-nitro-5-sulfophenyl)-5-[(phenylamino)-carbonyl]-2H tetrazolium hydroxide), is reduced to a soluble, brightly orange colored formazan derivative. To improve the sensitivity of XTT assay, PMS (N-methyl dibenzopyrazine methyl sulfate), an intermediate electron carrier is used. This color change is accomplished by breaking apart the positively charged quaternary tetrazole ring. An expansion in the number of viable cells results in an increase in the overall activity of mitochondrial dehydrogenases in the sample. […]
PC-3 cells at a density of 10^4 cells/well were seeded into flat-bottom, 96-well microtiter plates (100 μL/well) and allowed to attach and grow for 24 h. […] After incubation, an orange colored formazan product was formed and the absorbance was measured at 475 nm using BioTek microplate reader. […] Cell viability of the drug-treated cells was calculated as a fraction of solvent control and the anti-proliferative activity of carvacrol was expressed in terms of IC50 values. IC50 values were calculated using GraphPad Prism 4 (Graph Pad Software Inc., Calif., USA), and expressed as the means±S.E.M. of n≧3 experiments (each in triplicate).

[2] = system: cytochrome c release in PC-3 cells; test: Western blot analysis of cytochrome c release in PC-3 cells; format: cell-based, Human; details: 48 h
Description: as §1
Western blotting is a widely used analytical technique for detection of specific proteins separated from one another according to their size by gel electrophoresis. […] Once detected, the target protein will be visualized as a band on a blotting membrane, X-ray film, or an imaging system.
Cytochrome c is a heme-containing component of the electron transport chain in the mitochondrial membrane. […] In order to further confirm that carvacrol induced apoptosis in these cells, the release of cytochrome c from mitochondria into cytosol was analyzed using Western blot analysis in carvacrol-treated cells. […]
After maintaining constant agitation at 4° C. for 30 minutes, lysates were collected in microcentrifuge tubes and centrifuged at 12,000 rpm at 4° C. for 20 minutes. […] Protein concentration was determined using the Pierce® BCA protein assay kit. […] Western blot images are representative of at least 3 independent experiments, while quantification data represent mean±S.E.M. of n≧3 experiments.

## Cc1ccc(C(C)C)cc1O [Carvacrol]
[1]; 24 hr treatment
  IC50: 2250 ± 79.8 µM
[1]; 48 hr treatment
  IC50: 1400 ± 98.2 µM
[1]; 96 hr treatment
  IC50: 1010 ± 63.5 µM
[2]; 10 μM, compared to solvent control
  cytochrome c levels in cytosol (Western blot): Increase in cytochrome c levels in cytosol was observed
[2]; 2000 μM, compared to 10 μM carvacrol-treated cells
  cytochrome c levels (Western blot): decrease in levels of cytochrome c
